These results are taken from ChEMBL document CHEMBL1132141, “Emerging therapies for the prevention or treatment of postmenopausal osteoporosis” (1999).

For this test, the species on record is Rattus norvegicus. The test can be described thus: Effective concentration against cholesterol-lowering agent in OVX rats. In kind it is functional.

On to `C[C@H]1CCC[C@H](O)CCCCCc2cc(O)cc(O)c2C(=O)O1` [ZERANOL], for which the ED50 was found to be 0.2 mg/kg.

Usually ED50 stands for the midpoint of the dose-response relation.
